Assay results taken from patent US20060089499A1, “Pyrazolopyrimidines and the use thereof for controlling harmful organisms” (priority 2002, published 2006).

test system: Botrytis cinerea; assay: Botrytis test (bean)/protective; format: in vivo; details: topical, 48 h, protective, application rate 500 g/ha, evaluation 2 days after inoculation, read-out: Efficacy in %
Experimental: Botrytis Test (Bean)/Protective
To produce a suitable preparation of active compound, 1 part by weight of active compound is mixed with the stated amounts of solvent and emulsifier, and the concentrate is diluted with water to the desired concentration. To test for protective activity, young plants are sprayed with the preparation of active compound at the stated application rate. After the spray coating has dried on, 2 small pieces of agar colonized by Botrytis cinerea are placed onto each leaf. The inoculated plants are placed in a dark chamber at about 20° C. and 100% relative atmospheric humidity.
2 days after the inoculation, the size of the infected areas on the leaves is evaluated. 0% means an efficacy which corresponds to that of the control, whereas an efficacy of 100% means that no infection is observed.

Compound	pest or weed control at 500 g/ha [%]
C[C@H](Nc1c(-c2c(F)cc(F)cc2F)c(Cl)nc2c(Cl)cnn12)C(F)(F)F [drawing 116]	100
C=C(C)CN(C)c1c(-c2c(F)cc(F)cc2F)c(Cl)nc2c(C#N)cnn12 [drawing 122]	100
CC(C)Nc1c(-c2c(F)cc(F)cc2F)c(Cl)nc2c(C#N)cnn12 [drawing 120]	93
CC(C)CN(C)c1c(-c2ccccc2Cl)c(Cl)nc2c(C#N)cnn12 [drawing 125]	100
CC1CCN(c2c(-c3c(F)cccc3Cl)c(Cl)nc3c(C#N)cnn23)CC1 [drawing 112]	96
C[C@H](Nc1c(-c2ccc(F)cc2Cl)c(Cl)nc2c(C#N)cnn12)C(F)(F)F [drawing 124]	100
CC(Nc1c(-c2ccc(F)cc2Cl)c(Cl)nc2c(C#N)cnn12)C(F)(F)F (stereo not shown) [drawing 123]	99
N#Cc1cnn2c(N3CCC(F)CC3)c(-c3c(F)cccc3Cl)c(Cl)nc12 [drawing 127]	94
N#Cc1cnn2c(N3CCCCC3)c(-c3c(F)cccc3Cl)c(Cl)nc12 [drawing 111]	93
C[C@H](Nc1c(-c2c(F)cccc2Cl)c(Cl)nc2c(C#N)cnn12)C(F)(F)F [drawing 130]	100
CC(C)[C@@H](C)Nc1c(-c2c(F)cc(F)cc2F)c(Cl)nc2c(C#N)cnn12 [drawing 118]	96
Fc1cc(F)c(-c2c(Cl)nc3c(Cl)cnn3c2N2CCC(F)(F)CC2)c(F)c1 [drawing 117]	95
CC1CCN(c2c(-c3ccccc3Cl)c(Cl)nc3c(C#N)cnn23)CC1 [drawing 126]	95
CCC(C)Nc1c(-c2c(F)cc(F)cc2F)c(Cl)nc2c(C#N)cnn12 (stereo not shown) [drawing 119]	97
C[C@H](Nc1c(-c2c(F)cc(F)cc2F)c(Cl)nc2c(C#N)cnn12)C(F)(F)F [drawing 115]	99
N#Cc1cnn2c(NCC3CC3)c(-c3c(F)cccc3Cl)c(Cl)nc12 [drawing 113]	99
CC(C)CN(C)c1c(-c2c(F)cc(F)cc2F)c(Cl)nc2c(C#N)cnn12 [drawing 121]	100
C=C(C)CN(CC)c1c(-c2c(F)cccc2Cl)c(Cl)nc2c(C#N)cnn12 [drawing 129]	100
C=C(C)CN(CC)c1c(-c2c(F)cc(F)cc2F)c(Cl)nc2c(C#N)cnn12 [drawing 114]	100
CC(C)CN(C)c1c(-c2c(F)cccc2Cl)c(Cl)nc2c(C#N)cnn12 [drawing 128]	99

test system: Fusarium nivale (var. majus); assay: Fusarium nivale (var. majus) test (wheat)/protective; format: in vivo; details: protective, application rate 500 g/ha, evaluation 6 days after inoculation
Experimental: Fusarium nivale (var. majus) Test (Wheat)/Protective [table] To produce a suitable preparation of active compound, 1 part by weight of active compound is mixed with the stated amounts of solvent and emulsifier, and the concentrate is diluted with water to the desired concentration. To test for protective activity, young plants are sprayed with the preparation of active compound at the stated application rate. After the spray coating has dried on, the plants are sprayed with a conidia suspension of Fusarium nivale (var. majus). The plants are placed in a greenhouse under transparent incubation hoods at a temperature of about 15° C. and a relative atmospheric humidity of about 100%.

Compound	Efficacy in % [%]
C=C(C)CN(CC)c1c(-c2c(F)cc(F)cc2F)c(Cl)nc2c(C#N)cnn12 [drawing 138]	100
CC(Nc1c(-c2ccc(F)cc2Cl)c(Cl)nc2c(C#N)cnn12)C(F)(F)F (stereo not shown) [drawing 137]	88
C[C@H](Nc1c(-c2c(F)cc(F)cc2F)c(Cl)nc2c(Cl)cnn12)C(F)(F)F [drawing 139]	80

test system: Pyricularia oryzae; assay: not given; format: in vivo; details: rice, protective, application rate 500 g/ha, evaluation 6 days after inoculation

Compound	Efficacy in % [%]
C[C@H](Nc1c(-c2c(F)cc(F)cc2F)c(Cl)nc2c(C#N)cnn12)C(F)(F)F [drawing 141]	88
C[C@H](Nc1c(-c2c(F)cc(F)cc2F)c(Cl)nc2c(Cl)cnn12)C(F)(F)F [drawing 140]	88
N#Cc1cnn2c(NCC3CC3)c(-c3c(F)cc(F)cc3F)c(Cl)nc12 [drawing 142]	86
C[C@H](Nc1c(-c2ccccc2F)c(Cl)nc2c(C#N)cnn12)C(F)(F)F [drawing 143]	75

test system: not listed separately; assay: physchem; details: log P

Compound	chromatographic logP
CC(Nc1c(-c2ccc(F)cc2Cl)c(Cl)nc2c(C=O)cnn12)C(C)(C)C (stereo not shown) [Example 401, 3-formyl-5-chloro-6-(2-chloro-4-fluorophenyl)-7-(1,2,2-trimethylpropylamino)pyrazolo[1,5a]pyrimidine]	4.43

same assay, conditions: logP

Compound	chromatographic logP
C[C@H](Nc1c(-c2ccccc2F)c(Cl)nc2c(C#N)cnn12)C(F)(F)F [compound 74]	3.49
C=C(C)CN(CC)c1c(-c2c(F)cc(F)cc2F)c(Cl)nc2c(C#N)cnn12 [compound 6]	4.6
Fc1cc(F)c(-c2c(Cl)nc3c(Cl)cnn3c2N2CCC(F)(F)CC2)c(F)c1 [compound 231]	4.61
CC(C)CN(C)c1c(-c2ccccc2Cl)c(Cl)nc2c(C#N)cnn12 [compound 138]	4.51
CC(Nc1c(-c2ccc(F)cc2Cl)c(Cl)nc2c(C=O)cnn12)C(C)(C)C (stereo not shown) [Example 401, 3-formyl-5-chloro-6-(2-chloro-4-fluorophenyl)-7-(1,2,2-trimethylpropylamino)pyrazolo[1,5a]pyrimidine]	4.43

test system: Alternaria solani; assay: Alternaria test (tomato)/protective; format: in vivo; details: protective, application rate 750 g/ha, evaluation 7 days after inoculation
Experimental: (Tomato)/Protective [table] To produce a suitable preparation of active compound, 1 part by weight of active compound is mixed with the stated amounts of solvent and emulsifier, and the concentrate is diluted with water to the desired concentration. To test for protective activity, young tomato plants are sprayed with the preparation of active compound at the stated application rate. 1 day after the treatment, the plants are inoculated with a spore suspension of Alternaria solani and then remain at 100% rel. humidity and 20° C. for 24 h. The plants then remain at 96% rel. atmospheric humidity and a temperature of 20° C.

Compound	Efficacy in % [%]
N#Cc1cnn2c(N3CCCCC3)c(-c3c(F)cccc3Cl)c(Cl)nc12 [drawing 132]	95
N#Cc1cnn2c(N3CCOCC3)c(-c3c(F)cccc3Cl)c(Cl)nc12 [drawing 131]	95
C[C@H](Nc1c(-c2c(F)cc(F)cc2F)c(Cl)nc2c(C#N)cnn12)C(F)(F)F [drawing 135]	95
C=C(C)CN(CC)c1c(-c2c(F)cc(F)cc2F)c(Cl)nc2c(C#N)cnn12 [drawing 134]	95
CC(C)CNc1c(-c2ccc(F)cc2F)c(Cl)nc2c(C#N)cnn12 [drawing 133]	95
N#Cc1cnn2c(N3CCC(F)(F)CC3)c(-c3c(F)cc(F)cc3F)c(Cl)nc12 [drawing 136]	90

test system: Venturia inaequalis; assay: Venturia test (apple)/protective; format: in vivo; details: topical, 240 h, protective, application rate 100 g/ha, evaluation 10 days after inoculation, read-out: Efficacy in %
Experimental: Venturia Test (Apple)/Protective [table] To produce a suitable preparation of active compound, 1 part by weight of active compound is mixed with the stated amounts of solvent and emulsifier, and the concentrate is diluted with water to the desired concentration. To test for protective activity, young plants are sprayed with the preparation of active compound at the stated application rate. After the spray coating has dried on, the plants are inoculated with an aqueous conidia suspension of the apple scab pathogen Venturia inaequalis and then remain in an incubation cabin at about 20° C. and 100% relative atmospheric humidity for 1 day. The plants are then placed in a greenhouse at about 21° C. and a relative atmospheric humidity of about 90%.

Compound	pest or weed control at 100 g/ha [%]
Fc1cc(F)c(-c2c(Cl)nc3c(Cl)cnn3c2N2CCC(F)(F)CC2)c(F)c1 [drawing 97]	100
CC(Nc1c(-c2ccc(F)cc2Cl)c(Cl)nc2c(C#N)cnn12)C(F)(F)F (stereo not shown) [drawing 103]	93
C[C@H](Nc1c(-c2c(F)cccc2Cl)c(Cl)nc2c(C#N)cnn12)C(F)(F)F [drawing 110]	100
CC1CCN(c2c(-c3c(F)cccc3Cl)c(Cl)nc3c(C#N)cnn23)CC1 [drawing 92]	97
CC(C)CN(C)c1c(-c2ccccc2Cl)c(Cl)nc2c(C#N)cnn12 [drawing 105]	100
C=C(C)CN(CC)c1c(-c2c(F)cc(F)cc2F)c(Cl)nc2c(C#N)cnn12 [drawing 94]	100
CC(C)CN(C)c1c(-c2c(F)cccc2Cl)c(Cl)nc2c(C#N)cnn12 [drawing 108]	99
C=C(C)CN(C)c1c(-c2c(F)cc(F)cc2F)c(Cl)nc2c(C#N)cnn12 [drawing 102]	100
CC(C)CN(C)c1c(-c2c(F)cc(F)cc2F)c(Cl)nc2c(C#N)cnn12 [drawing 101]	100
CC(C)Nc1c(-c2c(F)cc(F)cc2F)c(Cl)nc2c(C#N)cnn12 [drawing 100]	98
C[C@H](Nc1c(-c2c(F)cc(F)cc2F)c(Cl)nc2c(Cl)cnn12)C(F)(F)F [drawing 96]	98
CC1CCN(c2c(-c3ccccc3Cl)c(Cl)nc3c(C#N)cnn23)CC1 [drawing 106]	99
CC(C)[C@@H](C)Nc1c(-c2c(F)cc(F)cc2F)c(Cl)nc2c(C#N)cnn12 [drawing 98]	100
C[C@H](Nc1c(-c2c(F)cc(F)cc2F)c(Cl)nc2c(C#N)cnn12)C(F)(F)F [drawing 95]	100
N#Cc1cnn2c(N3CCC(F)CC3)c(-c3c(F)cccc3Cl)c(Cl)nc12 [drawing 107]	98
CCC(C)Nc1c(-c2c(F)cc(F)cc2F)c(Cl)nc2c(C#N)cnn12 (stereo not shown) [drawing 99]	100
C=C(C)CN(CC)c1c(-c2c(F)cccc2Cl)c(Cl)nc2c(C#N)cnn12 [drawing 109]	100
N#Cc1cnn2c(NCC3CC3)c(-c3c(F)cccc3Cl)c(Cl)nc12 [drawing 93]	100
C[C@H](Nc1c(-c2ccc(F)cc2Cl)c(Cl)nc2c(C#N)cnn12)C(F)(F)F [drawing 104]	100
